Experimental data published in paper PMC10669340, “Bioactive Compounds from an Endophytic Pezicula sp. Showing Antagonistic Effects against the Ash Dieback Pathogen” (Biomolecules, 2023).
≈ marks a conversion by molar mass, not a printed value. Read-outs that look alike come from different tables or passages of the source. Marks after values point to notes of the source that are not given here.

Key:
[1] = tested on: Pichia anomala DSM 6766; assay: Antimicrobial serial dilution assay (MIC); assay type: cell-based; conditions: Pichia anomala DSM 6766; n.i.: no inhibition
Procedure: (§1) The antimicrobial activity (minimum inhibitory concentration, MIC) of the compounds was determined against Acinetobacter baumannii DSM 30008, Bacillus subtilis DSM 10, Chromobacterium violaceum DSM 30191, Escherichia coli DSM 1116, Mycobacterium smegmatis ATCC 700084, Pseudomonas aeruginosa PA14, Staphylococcus aureus DSM 346, Candida albicans DSM1665, Mucor hiemalis DSM 2656, Pichia anomala DSM 6766, Rhodotorula glutinis DSM 10134 and Schizosaccharomyces pombe DSM 70572 in a serial dilution assay as previously described.

[2] = tested on: Staphylococcus aureus DSM 346; assay: Antimicrobial serial dilution assay (MIC); assay type: cell-based; conditions: Staphylococcus aureus DSM 346; n.i.: no inhibition
Procedure: as §1

[3] = tested on: Schizosaccharomyces pombe DSM 70572; assay: Antimicrobial serial dilution assay (MIC); assay type: cell-based; conditions: Schizosaccharomyces pombe DSM 70572; n.i.: no inhibition
Procedure: as §1

[4] = tested on: Candida albicans DSM1665; assay: Antimicrobial serial dilution assay (MIC); assay type: cell-based; conditions: n.i.: no inhibition
Procedure: as §1

[5] = tested on: Rhodotorula glutinis DSM 10134; assay: Antimicrobial serial dilution assay (MIC); assay type: cell-based; conditions: Rhodotorula glutinis DSM 10134; n.i.: no inhibition
Procedure: as §1

[6] = tested on: Pseudomonas aeruginosa PA14; assay: Antimicrobial serial dilution assay (MIC); assay type: cell-based; conditions: n.i.: no inhibition
Procedure: as §1

[7] = tested on: Bacillus subtilis DSM 10; assay: Antimicrobial serial dilution assay (MIC); assay type: cell-based; conditions: Bacillus subtilis DSM 10, n.i.: no inhibition
Procedure: as §1

[8] = tested on: Mycobacterium smegmatis ATCC 700084; assay: Antimicrobial serial dilution assay (MIC); assay type: cell-based; conditions: Mycobacterium smegmatis ATCC 700084; n.i.: no inhibition
Procedure: as §1

[9] = tested on: Escherichia coli DSM 1116; assay: Antimicrobial serial dilution assay (MIC); assay type: cell-based; conditions: n.i.: no inhibition
Procedure: as §1

[10] = tested on: Mucor hiemalis DSM 2656; assay: Antimicrobial serial dilution assay (MIC); assay type: cell-based; conditions: for Minimum inhibitory concentration (MIC): Mucor hiemalis DSM 2656, n.i.: no inhibition
Procedure: as §1

[11] = tested on: Chromobacterium violaceum DSM 30191; assay: Antimicrobial serial dilution assay (MIC); assay type: cell-based; conditions: for Minimum inhibitory concentration (MIC): n.i.: no inhibition
Procedure: as §1

[12] = tested on: Acinetobacter baumannii DSM 30008; assay: Antimicrobial serial dilution assay (MIC); assay type: cell-based; conditions: for Minimum inhibitory concentration (MIC): n.i.: no inhibition
Procedure: as §1

[13] = tested on: Candida albicans DSM 11225 biofilm; assay: Biofilm assay, inhibition of biofilm formation; assay type: cell-based; set-up: unit not given here; conditions: (/) no activity
Procedure: The stock of fungal pathogen Candida albicans DSM 11225 from −20 °C was cultured in 25 mL YPD (Yeast extract Peptone Dextrose; dextrose 20 g/L, peptone 20 g/L, yeast extract 10 g/L) medium in a 250 mL flask at 30 °C with shaking 100 rpm for 18 h. Turbidity of the broth was measured and diluted to match the turbidity of a 0.05 McFarland standard in RPMI 1640 medium (Gibco, New York, NY, USA, Thermo Fisher Scientific). Afterwards, 150 μL of the fungal dispersion was added into each well of a 96-well microtiter plate (Falcon no. 351172, Thermo Fisher Scientific) and further incubated for 90 min. The supernatant was removed, and the plate was washed once by using PBS buffer. Compounds were serially diluted in 150 μL in fresh medium to concentrations of 250–2 μg/mL. Staining and analysis were conducted as previously described. Methanol (2.5%) and farnesol (250–2 μg/mL) were used as solvent and positive controls. Error bars indicate SD with duplicates in two biological repeats.

[14] = tested on: H. fraxineus (isolate RH02-T6-B4-2); assay: Agar disc diffusion assay; assay type: cell-based, Hymenoscyphus fraxineus; conditions: 6 mm disc, 7 days, 21 °C
Procedure: The antifungal activity of the isolated compounds against H. fraxineus was assessed by the disc diffusion method using 9 cm diameter petri dishes as previously described […] Three sterile filter paper discs per plate were gently placed on dried potato–dextrose agar. The fungicide nystatin was applied as the positive control (20 and 50 µg/paper disc) and methanol as the negative control (10 µL/paper disc). The test plates were incubated at 21 °C for 7 days, the inhibition diameters were measured, and the activity was evaluated compared to nystatin.
Figure S44: Agar disc (6 mm diam.) diffusion assay of compound CJ-17,572 (1) against H. fraxineus RH02-T6-B4-2, grown in 9-cm petri dishes on agar-based PD
medium with H. fraxineus, N - positive control nystatin, M - negative control methanol, CJ – 1.
Table S1. Antifungal activity of the compounds 1-6. n.i.: no inhibition, n.t.: not tested.
Compounds Amount ( µg/paper disc)
Peziculastatin n.t. n.i. 8 mm
Mycorrhizin A 19 mm 31 mm n.t.
Cryptosporioptide A n.t. n.i. n.i.
Cryptosporioptide B n.t. n.i. 8 mm
Cryptosporioptide C n.t. n.i. n.i.
Nystatin 21 mm 24 mm n.t.

[15] = tested on: Staphylococcus aureus DSM 1104 preformed biofilm; assay: Biofilm assay, dispersal of preformed biofilm; assay type: cell-based; set-up: Antibiofilm activity, preformed S. aureus: unit not given here; conditions: for Antibiofilm activity, preformed S. aureus: (/) no activity; for efficacy of biofilm eradication, preformed biofilms of S. aureus: concentrations between 15.6 µg/mL–125 µg/mL
Procedure: Staphylococcus aureus DSM 1104 from −20 °C stock was cultured in 25 mL CASO (Casein–Peptone Soymeal–Peptone; peptone from casein 15 g/L, peptone from soy flour 5 g/L, NaCl 5 g/L, pH 7.3) medium at 37 °C at 100 rpm in 250 mL for 20 h. The precultured suspension of S. aureus was adjusted so that its OD600 matched the turbidity of a 0.001 McFarland standard. S. aureus was incubated in 96-well tissue microtiter plates (TPP tissue culture ref.no 92196, Switzerland) for 24 h at 150 rpm in […] CASO medium with 4% glucose broth. The supernatant was removed from the wells and 150 μL of the respective media (fresh) was added to the wells, together with the serially diluted compounds (250–2 μg/mL). The plates were incubated for a further 24 h at 37 °C. Staining of the biofilms was carried out as described previously. Standard deviation (SD) of two repeats with duplicates each were 10% or less. Methanol (2.5%) and microporenic acid A (250–2 μg/mL) were used as solvent and positive controls. Error bars indicate SD with duplicates in two biological repeats.

[16] = MTT cytotoxicity assay; assay type: cell-based; conditions: read-out: Cytotoxic activity (IC50)
Procedure: The in vitro cytotoxicity assay was performed using the MTT (3-(4,5-dimethylthiayol-2-yl)-2,5-diphenyltetrazolium bromide) test in 96-well microtiter plates as previously described.

[17] = 50 µg/paper disc, n.i.: no inhibition
[18] = 100 µg/paper disc, n.i.: no inhibition

CCC(C(=O)O)C(=O)OC1C2(C)Oc3ccc(-c4ccc5c(c4O)C(=O)C4=C(O)C6OC6(C)C(OC(=O)C(CC)C(=O)O)C4(C)O5)c(O)c3C(=O)C2=C(O)C2OC21C (stereo not drawn) [Compound 6, Cryptosporioptide C]
Minimum inhibitory concentration (MIC) [1]: n.i.
Minimum inhibitory concentration (MIC) [2]: n.i.
Minimum inhibitory concentration (MIC) [3]: n.i.
Minimum inhibitory concentration (MIC) [4]: n.i.
Minimum inhibitory concentration (MIC) [5]: n.i.
Minimum inhibitory concentration (MIC) [6]: n.i.
Minimum inhibitory concentration (MIC) [7]: n.i.
Minimum inhibitory concentration (MIC) [8]: n.i.
Minimum inhibitory concentration (MIC) [9]: n.i.
MIC ([10]; Mucor hiemalis, DSM2656, read-out: Minimum inhibitory concentration (MIC)): 66.6 µg/mL (≈ 82.6 µM)
Minimum inhibitory concentration (MIC) [11]: n.i.
Minimum inhibitory concentration (MIC) [12]: n.i.
Antibiofilm activity, C. albicans ([13]; 62.5 µg/mL): 40
Antibiofilm activity, C. albicans ([13]; 125 µg/mL): 62
Antibiofilm activity, C. albicans ([13]; 250 µg/mL): 78
Antifungal activity, inhibition diameter [14, 17]: n.i.
Antifungal activity, inhibition diameter [14, 18]: n.i.
Antibiofilm activity, preformed S. aureus ([15]; 2 µg/mL): 39
Antibiofilm activity, preformed S. aureus ([15]; 3.9 µg/mL): 49
Antibiofilm activity, preformed S. aureus ([15]; 7.8 µg/mL): 68
Antibiofilm activity, preformed S. aureus ([15]; 15.6 µg/mL): 72
Antibiofilm activity, preformed S. aureus ([15]; 31.3 µg/mL): 78
Antibiofilm activity, preformed S. aureus ([15]; 62.5 µg/mL): 78
Antibiofilm activity, preformed S. aureus ([15]; 125 µg/mL): 77
Antibiofilm activity, preformed S. aureus ([15]; 250 µg/mL): 23
efficacy of biofilm eradication, preformed biofilms of S. aureus [15]: 70–80%
dispersal effects on preformed biofilms of S. aureus ([15]; even up to 2 µg/mL): 40%

CN(C)[C@@H]1C(O)=C(C(N)=O)C(=O)[C@@]2(O)C(O)=C3C(=O)c4c(O)cccc4[C@@](C)(O)[C@H]3[C@H](O)[C@@H]12 [oxytetracycline, reference compound]
MIC ([7]; DSM10, read-out: Minimum inhibitory concentration (MIC)): 16.6 µg/mL (≈ 36.1 µM)
MIC ([11]; DSM30191, n.i.: no inhibition, read-out: Minimum inhibitory concentration (MIC)): 0.83 µg/mL (≈ 1.8 µM)

CCC(C(=O)O)C(=O)OC1C2(C)Oc3ccc(-c4ccc5c(c4O)C(=O)C4=C(O)C6OC6(C)C(OC(=O)CC(=O)O)C4(C)O5)c(O)c3C(=O)C2=C(O)C2OC21C (stereo not drawn) [Compound 5, Cryptosporioptide B]
Minimum inhibitory concentration (MIC) [1]: n.i.
Minimum inhibitory concentration (MIC) [2]: n.i.
Minimum inhibitory concentration (MIC) [3]: n.i.
Minimum inhibitory concentration (MIC) [4]: n.i.
Minimum inhibitory concentration (MIC) [5]: n.i.
Minimum inhibitory concentration (MIC) [6]: n.i.
Minimum inhibitory concentration (MIC) [7]: n.i.
Minimum inhibitory concentration (MIC) [8]: n.i.
Minimum inhibitory concentration (MIC) [9]: n.i.
Minimum inhibitory concentration (MIC) [10]: n.i.
Minimum inhibitory concentration (MIC) [11]: n.i.
Minimum inhibitory concentration (MIC) [12]: n.i.
Antibiofilm activity, C. albicans ([13]; 62.5 µg/mL): 49
Antibiofilm activity, C. albicans ([13]; 125 µg/mL): 50
Antibiofilm activity, C. albicans ([13]; 250 µg/mL): 74
Antifungal activity, inhibition diameter [14, 17]: n.i.
Antifungal activity, inhibition diameter [14, 18]: 8 mm
Antibiofilm activity, preformed S. aureus ([15]; 7.8 µg/mL): 54
Antibiofilm activity, preformed S. aureus ([15]; 15.6 µg/mL): 75
Antibiofilm activity, preformed S. aureus ([15]; 62.5 µg/mL): 83
Antibiofilm activity, preformed S. aureus ([15]; 125 µg/mL): 81
Antibiofilm activity, preformed S. aureus ([15]; 250 µg/mL): 49
efficacy of biofilm eradication, preformed biofilms of S. aureus [15]: 70–80%

CC(C)=CCC/C(C)=C/CC/C(C)=C/CO [Farnesol, farnesol, reference compound]
Antibiofilm activity, C. albicans ([13]; 15.6 µg/mL): 55
Antibiofilm activity, C. albicans ([13]; 31.3 µg/mL): 66
Antibiofilm activity, C. albicans ([13]; 62.5 µg/mL): 71
Antibiofilm activity, C. albicans ([13]; 250 µg/mL): 81

gentamycin [reference compound]
Minimum inhibitory concentration (MIC) [2]: 0.21 ^b µg/mL
Minimum inhibitory concentration (MIC) [6]: 0.21 ^b µg/mL
Minimum inhibitory concentration (MIC) [9]: 0.83 ^b µg/mL

O=C(O)c1cn(C2CC2)c2cc(N3CCNCC3)c(F)cc2c1=O [ciprofloxacin, reference compound]
MIC ([12]; DSM30008, n.i.: no inhibition, read-out: Minimum inhibitory concentration (MIC)): 0.26 µg/mL (≈ 0.785 µM)

C[C@@H]1[C@H](O)[C@@H](C)/C=C/C=C/CC/C=C/C=C/C=C/C=C/C(O[C@H]2O[C@H](C)[C@@H](O)[C@H](N)[C@@H]2O)CC2O[C@](O)(CC(O)C(O)CCC(O)CC(O)CC(O)CC(=O)O[C@H]1C)CC(O)C2C(=O)O (stereo partly drawn) [nystatin, reference compound]
Minimum inhibitory concentration (MIC) [1]: 16.6 ^e µg/mL
Minimum inhibitory concentration (MIC) [3]: 16.6 ^e µg/mL
Minimum inhibitory concentration (MIC) [4]: 16.6 ^e µg/mL
Minimum inhibitory concentration (MIC) [5]: 8.3 ^e µg/mL
Minimum inhibitory concentration (MIC) [10]: 16.6 ^e µg/mL
Antifungal activity, inhibition diameter ([14]; 20 µg/paper disc): 21 mm
Antifungal activity, inhibition diameter [14, 17]: 24 mm

C/C(=C\c1csc(C)n1)[C@@H]1C[C@@H]2O[C@]2(C)CCC[C@H](C)[C@H](O)[C@@H](C)C(=O)C(C)(C)[C@@H](O)CC(=O)O1 [epothilone B, reference compound]
IC50 ([16]; human, A431): 0.065 nM
IC50 ([16]; human, A549): 0.053 nM
IC50 ([16]; human, KB3.1, n.c.: no cytotoxicity): 0.045 nM
IC50 ([16]; human, MCF-7): 0.083 nM
IC50 ([16]; human, PC-3): 0.28 nM
IC50 ([16]; human, SKOV-3): 0.18 nM
IC50 ([16]; mouse, L929, n.c.: no cytotoxicity): 0.43 nM

NC[C@H]1O[C@H](O[C@H]2[C@H](O)[C@@H](O[C@H]3O[C@H](CO)[C@@H](O)[C@H](N)[C@H]3O)[C@H](N)C[C@@H]2N)[C@H](O)[C@@H](O)[C@@H]1O [kanamycin, reference compound]
Minimum inhibitory concentration (MIC) [8]: 1.7 ^d µg/mL
